Tests used:
[1] = Body weights of SCI rats during treatment; type: in vivo, rat; conditions: SCI rats vs saline control, measured until the 13th week
Description: Adult, female Lewis rats (~160 g on arrival) from Envigo were used as the subjects receiving the treatment in the study. The rats were assigned unique identification numbers (PGI ID and tail marks) and housed in ventilated cages. All rats were examined, handled, and weighed prior to initiation of the study to assure adequate health and suitability. During the course of the study, 12/12 light/dark cycles were maintained. The room temperature was maintained between […] and 23° C. with a relative humidity maintained around 50%. Chow and water were provided adlibitum for the duration of the study. The rats were randomly assigned across treatment groups. Body weights were taken twice a week during the study.
(§1) Lyophilized Compound 8 was dissolved in saline and injected s.c. at a volume of 500 μl to animal once daily from day 1-day 49 post spinal cord injury.
(§2) The dose concentration was 0.8 mg/ml, corresponding to 400 μg/rat. After reconstitutions, the solution was aliquoted and kept at −20° C. until dosing.
Body weights were taken twice a week for the first 7 weeks after injury and then weekly until endpoint. Health and survival of the animals was evaluated during bladder expressions, body weight and behavioral test, any health concerns were reported and discussed with a veterinarian if needed.

[2] = tested on: rat model of thoracic traumatic Spinal Cord Injury (SCI); test: Bladder function, bladder score and urinary complications in SCI rats; type: in vivo
Description: as §1, §2
Spinal cord injury (SCI) was introduced to the rats by surgery using the Infinite Horizon (IH) Impactor (200 kDyn force) described by Scheff et al. 2003. The surgery was performed with aseptic procedures in a designated area under deep anesthesia. Rats were anesthetized with isoflurane (4% for induction, 2% for maintenance), and O2 (300 cm^3/min) mixture. Hair was removed from the surgical site with clippers and the skin wase scrubbed with an antiseptic detergent. To maintain body temperature the animals were placed upon a homoeothermic blanket system. The T8 Vertebra of the rat was located externally, and an incision was made exposing the vertebral column from T6-T11. A laminectomy was performed using a surgical microscope to expose the dorsal spinal cord at the thoracic (T8) vertebral level. The vertebral column was stabilized by clamping the nearest rostral and caudal vertebral processes and the injury was produced using the IH impactor device at a 200 kDyn force. After each lesion the IH graphs and impact data were reviewed and recorded, rats presenting an impact force more than 10% higher or lower than expected and/or any abnormality on the force/displacement impact graphs were excluded from the study. Additionally, animals scoring more than 1 points in the Basso, Beattie and Bresnahan (BBB) score scale at 1 days after SCI were excluded for the study as well.
Starting the day after lesion animals were observed twice a day and bladders were manually expressed using gentle abdominal pressure. Any abnormal appearance of the urine (i.e. cloudy urine, bloody urine) was recorded, and the size of the bladder estimated by trained researchers in order to obtain a categorical score (bladder score) (empty bladders=0; extra-small bladders=1; small bladders=2, medium bladders=3, large bladders=4). Urinary complications (bloody urine, foul-smelling urine, urine-stained fur) were reported and treated with SC fluids twice a day, and antibiotic treatment if the issues persisted. Bladder expression continue until spontaneous voiding was observed (empty bladder for 3 consecutive days).
During bladder expressions the size of each bladder was estimated by trained researchers and a semi-quantitative score was obtained. Daily estimates of urine retention were obtained by adding the bladder size scores of AM and PM bladder expressions. FIG. 5 illustrates the weekly average of urine retention in the rats in the testing group that were treated with Compound 8 in saline, compared to the rats in control group that were treated with vehicle control (saline).
Urinary complications including bloody urine, foul-smelling urine, and urine-stained fur were monitored. When a new complication was observed after resolutions of a previous event, it was considered repetitive. Animals would be euthanized if the complications persisted after an additional cycle of antibiotics, when bladders could not be expressed or when general health deterioration was observed.
Urinary complications, such as repetitive bloody urine, urine-stained fur and urinary infections were observed, recorded, and treated, as needed.
(§3) In this study, the effects of Compound 8 in improving the recovery of open field locomotor performance and bladder function in the SCI rats were further evaluated in comparison with Compound 4 by assessing the BBB scores and bladder scores according to the methods described in Example 3.
In this assessment, 12-13 rats were included in each of the following groups (1) Control group 1: SCI+saline alone; (2) Control group 2: SCI+Compound 4 in saline; (3) Testing group: SCI+Compound 8. […]

SCI rats = test: Percentage of SCI rats reaching predefined BBB and/or bladder score thresholds at end of study; type: in vivo, rat
Text: as §3
In this assessment, 12-13 rats were included in each of the following groups (1) Control group 1: SCI+saline alone; (2) Control group 2: SCI+Compound 4 in saline; (3) Testing group: SCI+Compound 8. The treatment was started on day 1 post-injury and continued through (last dose administered on) day 49 post-injury. The post-treatment observation period commenced on day 50 post-injury and continued until the end of study on day 84 post-injury.
At the end of the study, the performance of Compound 8 was evaluated in comparison with Compound 4 and saline alone by calculating the percentages of animals achieving predefined thresholds of functional improvement in the following categories: (i) Simultaneous improvement in BBB and bladder scores, (ii) Improvement in the locomotor function (BBB score) alone but not the in the bladder score, (iii) Improvement in the bladder score alone but not in the BBB score. FIG. 16 depicts the percentage of rats in each of these three categories, as annotated on the X-axis. An additional group (annotated as “Combined”) represents the combined percentage of rats achieving improvement in any of the first three categories for each treatment cohort (saline alone, Compound 4, and Compound 8). […]

Substance: TAT-Cys-rodent PTPRS wedge domain homodimer [Compound 8]
- effect on body weights [1]: no adverse effects on body weights
- average weekly bladder scores compared with Compound 4 or saline alone ([2]; RM ANOVA, Tukey, p=0.0001 vs saline, p=0.0085 vs Compound 4): significantly lower
- Euthanasia due to Urinary Complications ([2]; during the course of the study): none
- Repetitive Urinary Complications (animals) ([2]; during the course of the study): 1 out of 13
- Repetitive Urinary Complications (percentage) ([2]; during the course of the study): 8%
- Urinary Complications (animals) ([2]; during the course of the study): 4 out of 13
- Urinary Complications (percentage) ([2]; during the course of the study): 31%
- percentage of rats with bladder scores of 2 or better ([2]; during weeks 10 to 13): more than 40%
- estimated size of bladders ([2]; evident from week 8 to 13): decrease in the estimated size of bladders
- percentage of rats with bladder scores of 2 or better ([2]; starting on week 6 post-SCI): About 25%
- frequency of urinary complications compared with vehicle control ([2]; vs rats receiving vehicle control): less frequent
- urine retention (weekly average of estimated bladder size scores) ([2]; vs vehicle control, trend noticeable starting at week 4 after SCI): less urine retention
- percentage of rats reaching BBB score of 11 alone (SCI rats; end of study): about 8%
- percentage of rats with BBB score of 11 and bladder score of 2 or less simultaneously (SCI rats; end of study): about 40%
- percentage of rats with BBB score of at least 10 and bladder score of 2 or less simultaneously (SCI rats; end of study (day 84)): ~50%
- percentage of rats with improvement in the BBB score only (at least 10, no bladder score improvement) (SCI rats; end of study (day 84)): about 15%
- percentage of rats with improvement in bladder-only scores (2 or less, no BBB improvement) (SCI rats; end of study (day 84), BBB threshold 10): about 8%
- combined rate of functional improvement (simultaneous, BBB only and bladder only combined) (SCI rats; end of study (day 84), thresholds BBB at least 10, bladder 2 or less): about 70%
- combined rate of functional improvement (BBB 11 only, bladder 2 or lower only, and both) (SCI rats; end of study, thresholds BBB 11, bladder 2 or lower): about 60%

Reference: patent US20260286322A1, “PROTEIN TYROSINE P[…] DOMAIN PEPTIDE DIMER FOR NERVOUS SYSTEM REPAIR” (NervGen Pharma Corp., priority 2023, published 2026)
